Here are results for 8 molecules from PubChem BioAssay (NCI).

Where “and” joins values, the source holds several entries; their conditions need not be identical. Equal entries are not always repeated.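 48-hour exposure; five concentrations; linearly interpolated endpoints. The concentration for 50% growth inhibition is given as GI50. TGI is the concentration that stops growth completely.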 A value given as a limit tells only on which side of the number the result lay.

Test systems include NCI-H23 lung; SN12C renal; SF-268 CNS; PC-3 prostate; UACC-62 melanoma; COLO 205 colon; OVCAR-8 ovarian; T-47D breast; SF-539 CNS; ACHN renal.
Common to all, as to test: NCI-60 cell line screen, 48 h

With `CC1OC(OC2C(O)C(OCCc3ccc(O)c(O)c3)OC(CO)C2OC(=O)/C=C/c2ccc(O)c(O)c2)C(O)C(O)C1O` (stereo not drawn), the GI50 with NCI-H23 lung is greater than 100 µM; with SN12C renal, 20.5 µM; in the assay with SF-268 CNS, greater than 100 µM; with PC-3 prostate it was greater than 100 µM; in the assay on UACC-62 melanoma it was 19.1 µM; in the assay with COLO 205 colon it was greater than 100 µM. For the same molecule, the GI50 is greater than 100 µM in the assay on OVCAR-8 ovarian, greater than 100 µM in the assay with T-47D breast, 22.9 µM in the assay on SF-539 CNS and 18.9 µM in the assay with ACHN renal. Besides, the TGI in the assay on NCI-H23 lung is greater than 100 µM; in the assay on SN12C renal, 36.8 µM; in the assay with SF-268 CNS it was greater than 100 µM; in the assay on PC-3 prostate, greater than 100 µM; in the assay with UACC-62 melanoma, 45.5 µM; in the assay with COLO 205 colon, greater than 100 µM. The TGI in the assay on OVCAR-8 ovarian was greater than 100 µM; with T-47D breast it was greater than 100 µM; in the assay on SF-539 CNS, 40.9 µM; in the assay on ACHN renal, 37 µM.

With `CC[C@H](C)[C@H](NC(=O)[C@H]1CCCCN1C)C(=O)N(C)[C@H](C[C@@H](OC(C)=O)c1nc(C(=O)NC23C4C5C2C2C3C4C52C(=O)OC)cs1)C(C)C` (stereo partly drawn), the GI50 with NCI-H23 lung was 0.00414 µM and 0.0025 µM; with SN12C renal, 0.00199 µM and 0.0025 µM; with SF-268 CNS, 0.00279 µM and 0.0025 µM; in the assay with PC-3 prostate, 0.00263 µM and 0.0025 µM; in the assay with UACC-62 melanoma it was 0.0011 µM and 0.0025 µM; in the assay with COLO 205 colon, 0.00303 µM and 0.0025 µM. The GI50 is 0.00204 µM and 0.0025 µM in the assay on OVCAR-8 ovarian; 0.00275 µM with T-47D breast; 0.00115 µM and 0.0025 µM in the assay on SF-539 CNS; 0.0189 µM and 0.0025 µM with ACHN renal. Further, the TGI with NCI-H23 lung was greater than 25 µM; in the assay on SN12C renal, 9.33 µM; in the assay with SF-268 CNS, greater than 25 µM; in the assay with PC-3 prostate, greater than 25 µM; in the assay with UACC-62 melanoma, 20.1 µM; in the assay on COLO 205 colon it was 0.0715 µM and 0.0111 µM. In addition, the TGI is greater than 25 µM in the assay with OVCAR-8 ovarian; 0.0114 µM and 0.00941 µM in the assay with SF-539 CNS; 4.03 µM in the assay with ACHN renal.

Consider `O=[N+]([O-])c1cc(C(F)(F)F)cc2n[se]nc12`, for which the TGI was found to be 9.58 µM in the assay with NCI-H23 lung; 10.6 µM in the assay on SN12C renal; 15.3 µM in the assay with SF-268 CNS; 8.32 µM in the assay on PC-3 prostate; 15 µM in the assay on UACC-62 melanoma; 4.21 µM in the assay on COLO 205 colon. For the same molecule, the TGI in the assay with OVCAR-8 ovarian was determined as 4.25 µM; with T-47D breast it was 10.4 µM; with SF-539 CNS it was 7.33 µM; in the assay on ACHN renal, 5.89 µM.

As for `CN(CCCCCCCCNc1ccnc2ccccc12)Cc1ccc(-c2ccc(-c3ccc(C#N)cc3)s2)cc1`, the GI50 with NCI-H23 lung was 0.84 µM; with SN12C renal, 1.37 µM; with SF-268 CNS it was 1.6 µM; with PC-3 prostate, 0.766 µM; with UACC-62 melanoma, 1.53 µM; with COLO 205 colon, 0.63 µM. The GI50 is 1.02 µM with OVCAR-8 ovarian, 0.881 µM in the assay with T-47D breast, 0.797 µM in the assay with SF-539 CNS and 1.28 µM with ACHN renal. Further, the TGI worked out at 2.42 µM in the assay on NCI-H23 lung; 3 µM in the assay on SN12C renal; 3.45 µM in the assay on SF-268 CNS; 2.3 µM with PC-3 prostate; 2.92 µM with UACC-62 melanoma; 2.17 µM in the assay with COLO 205 colon. In addition, the TGI with OVCAR-8 ovarian came to 4.5 µM; in the assay on T-47D breast, 3.16 µM; with SF-539 CNS, 2.23 µM; with ACHN renal it was 2.55 µM.

In the case of `CSc1nc(SC)c2c(C)c(Br)[nH]c2n1`, the TGI in the assay on NCI-H23 lung, with SN12C renal, with SF-268 CNS, in the assay with PC-3 prostate, in the assay on UACC-62 melanoma and in the assay on COLO 205 colon was greater than 100 µM each time. In addition, the TGI in the assay on OVCAR-8 ovarian, in the assay with T-47D breast, in the assay on SF-539 CNS and in the assay on ACHN renal was greater than 100 µM in each case.

In the case of `O=c1oc2ccc(I)cc2c(=O)n1-c1ccc(I)cc1F`, the GI50 with NCI-H23 lung was 0.476 µM; in the assay on SN12C renal, 0.404 µM; with SF-268 CNS it was 0.511 µM; in the assay with PC-3 prostate it was 2.23 µM; in the assay on UACC-62 melanoma, 0.279 µM; with COLO 205 colon, 4.88 µM. Further, the GI50 is 0.704 µM in the assay on OVCAR-8 ovarian, 0.298 µM in the assay with T-47D breast, 0.484 µM with SF-539 CNS and 0.616 µM in the assay with ACHN renal. The TGI with NCI-H23 lung stood at 4.39 µM; in the assay with SN12C renal, 6.49 µM; in the assay with SF-268 CNS it was 7.64 µM; in the assay with PC-3 prostate, 7.35 µM; in the assay on UACC-62 melanoma, 1.11 µM; with COLO 205 colon it was 17.8 µM. Besides, the TGI is greater than 31.7 µM in the assay on OVCAR-8 ovarian, 3.49 µM in the assay with T-47D breast, 4.29 µM in the assay with SF-539 CNS and 11.7 µM in the assay with ACHN renal.

Take `CCc1nc(N)nc(N)c1-c1ccc(N(C)Cc2ccccc2)c([N+](=O)[O-])c1`: the TGI in the assay with NCI-H23 lung was 24.4 µM; with SN12C renal it was 41.7 µM; in the assay with SF-268 CNS, 37.9 µM; in the assay on PC-3 prostate, 16.6 µM; with UACC-62 melanoma, 13 µM; in the assay on COLO 205 colon, 8.4 µM. Further, the TGI in the assay with OVCAR-8 ovarian turned out to be 30 µM; in the assay with T-47D breast it was 21.4 µM; with SF-539 CNS it was 9.97 µM; in the assay on ACHN renal it was 36.1 µM.

With `CC[C@H](C)C(=O)O[C@H]1CCC=C2C=C[C@H](C)[C@H](CC[C@@H]3C[C@@H](O)CC(=O)O3)[C@H]21`, the GI50 with NCI-H23 lung was 8.37 µM; in the assay on SN12C renal, 3.88 µM; in the assay with SF-268 CNS, 2.14 µM; in the assay on PC-3 prostate, 1.7 µM; with UACC-62 melanoma, 2.51 µM; with OVCAR-8 ovarian it was 5.05 µM. Besides, the results for the GI50 with T-47D breast, in the assay on SF-539 CNS and in the assay on ACHN renal were 21.9 µM, 12.8 µM and 1.46 µM, respectively. For the same molecule, the TGI in the assay with NCI-H23 lung was greater than 100 µM; in the assay with SN12C renal it was greater than 100 µM; in the assay on SF-268 CNS it was greater than 100 µM; with PC-3 prostate it was greater than 100 µM; with UACC-62 melanoma, greater than 24.4 µM; in the assay on COLO 205 colon it was 82 µM. For the same molecule, the TGI is greater than 100 µM with OVCAR-8 ovarian, greater than 100 µM in the assay with T-47D breast, greater than 100 µM in the assay on SF-539 CNS and 5.18 µM with ACHN renal.
